Data taken from paper PMC6487263, “Kinetic and structural analysis of human ALDH9A1” (Bioscience Reports, 2019).

Key:
[1] = target: T1, human ALDH9A1 (HsALDH9A1) (Homo sapiens, UniProt P49189); experiment: nanoDSF (Tycho NT.[…]); type: binding; settings: 150 mM Tris/HCl pH 7.5, apoenzyme reference 69.5 °C
T1 construct: full-length 494-residue protein, His-tag kept (pCDFDuet, BamHI/XhoI), recombinant from E. coli; silent polymorphism at Ile110 codon

[2] = target: T1, human ALDH9A1 (HsALDH9A1); experiment: microscale thermophoresis, RED-tris-NTA labelled His-tagged enzyme; type: binding
From the text: microscale thermophoresis, RED-tris-NTA labelled His-tagged enzyme on human ALDH9A1 (HsALDH9A1)

[3] = target: T1, human ALDH9A1 (HsALDH9A1); experiment: NADH formation at […] nm, partial substrate inhibition fit; type: biochemical; settings: substrate inhibition constant; 1 mM NAD+, 150 mM sodium pyrophosphate pH 7.5, 30 °C
[4] = target: T1, human ALDH9A1 (HsALDH9A1); experiment: microscale thermophoresis; type: binding

T1 sequence (P49189 whole entry): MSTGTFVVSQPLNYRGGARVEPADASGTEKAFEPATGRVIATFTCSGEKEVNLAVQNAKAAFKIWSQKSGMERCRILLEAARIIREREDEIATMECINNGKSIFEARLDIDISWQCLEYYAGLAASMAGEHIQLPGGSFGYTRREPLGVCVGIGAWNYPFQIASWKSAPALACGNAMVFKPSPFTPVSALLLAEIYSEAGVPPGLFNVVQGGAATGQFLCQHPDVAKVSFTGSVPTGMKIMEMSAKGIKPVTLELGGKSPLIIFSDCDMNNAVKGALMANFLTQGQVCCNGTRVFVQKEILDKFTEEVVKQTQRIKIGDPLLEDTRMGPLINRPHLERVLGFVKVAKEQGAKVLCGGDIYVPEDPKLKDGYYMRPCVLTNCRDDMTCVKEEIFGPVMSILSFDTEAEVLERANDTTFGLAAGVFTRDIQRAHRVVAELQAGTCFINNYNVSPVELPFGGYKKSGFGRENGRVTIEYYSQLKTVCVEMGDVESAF

| Compound | Kd [2] [µM] | Ki [3] [µM] | other results |
| --- | --- | --- | --- |
| NC(=O)c1ccc[n+]([C@@H]2O[C@H](COP(=O)([O-])OP(=O)(O)OC[C@H]3O[C@@H](n4cnc5c(N)ncnc54)[C@H](O)[C@@H]3O)[C@@H](O)[C@H]2O)c1 [NAD^+] | 16 ± 3 | – | Tm ([1]; 5 mM ligand): 69.5 °C |
| N=C(N)NCCCC=O [GBAL] | – | 7230 ± 1650 | – |
| CN(C)CCCC=O [DMABAL] | – | 10880 ± 1350 | – |
| C[N+](C)(C)CC=O [BAL] | 171 ± 35 | – | – |
| C[N+](C)(C)CCC=O [TMAPAL, 3-(trimethylamino)propionaldehyde] | – | 470 ± 45 | – |
| C[N+](C)(C)CCCC=O [TMABAL, 4-(trimethylamino)butyraldehyde] | 6 ± 3 | 2200 ± 590 | Tm ([1]; 5 mM ligand): 63 °C |
| C[N+](C)(C)CCCC(=O)[O-] [TMABA] | – | – | Kd [4]: 2600 ± 200 µM; Tm ([1]; 10 mM ligand): 66 °C |
